Consider four molecules from ChEMBL document CHEMBL1126314, “A dideazatetrahydrofolate analogue lacking a chiral center at C-6, N-[4-[2-(2-amino-3,4-dihydro-4-oxo-7H-pyrrolo[2,3-d]pyrimidin-5-yl)ethyl]benzoyl]-L-glutamic acid, is an inhibitor of thymidylate synthase” (J Med Chem, 1992).

The nature of data set [1]: First-order rate constant of the compound. In kind it is ADME.
For another data set, the target named is Thymidylate synthase (Mus musculus, UniProt P07607). Kind of data set: Compound was evaluated for competitive inhibition of recombinant mouse thymidylate synthase.
Thymidylate synthase, sequence (P07607 whole entry): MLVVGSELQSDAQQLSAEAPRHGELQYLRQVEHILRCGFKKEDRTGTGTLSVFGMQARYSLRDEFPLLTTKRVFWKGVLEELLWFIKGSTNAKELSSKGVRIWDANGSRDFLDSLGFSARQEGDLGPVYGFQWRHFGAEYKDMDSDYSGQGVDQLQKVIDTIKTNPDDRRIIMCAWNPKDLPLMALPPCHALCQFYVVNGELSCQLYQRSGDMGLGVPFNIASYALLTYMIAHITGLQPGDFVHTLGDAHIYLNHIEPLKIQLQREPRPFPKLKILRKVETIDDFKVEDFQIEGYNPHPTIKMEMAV
A short description of data set [2]: First-order rate constant was determined. It is filed as ADME.
The next data set concerns L1210. As to the kind of experiment: Compound was evaluated for the half-maximal inhibition against mouse L1210 leukemic cell growth. In kind it is functional, cell-based.
A short description of data set [3]: Km was determined. It is filed as ADME.
For a further data set, the system named is CCRF-CEM. Kind of data set: Compound was evaluated for the half-maximal inhibition against human CCRF-CEM lymphoblastic leukemic cell growth. It is filed as functional, cell-based.

Molecule `Nc1nc(O)c2c(n1)NCC(CCc1ccc(C(=O)NC(CCC(=O)O)C(=O)O)cc1)C2` (centres undefined) showed a Rate constant in data set [1] of 32. Moreover, the Ki at Thymidylate synthase turned out to be 30 nM.
The molecule `Nc1nc(N)c2nc(CNc3ccc(C(=O)N[C@@H](CCC(=O)O)C(=O)O)cc3)cnc2n1` [AMINOPTERIN] gave a Rate constant in data set [2] of 10.1.
In data set [1], `CN(Cc1cnc2nc(N)nc(N)c2n1)c1ccc(C(=O)N[C@@H](CCC(=O)O)C(=O)O)cc1` [METHOTREXATE] registered a Rate constant of 0.9.
Consider `Nc1nc2[nH]cc(CCc3ccc(C(=O)N[C@@H](CCC(=O)O)C(=O)O)cc3)c2c(=O)[nH]1` [PEMETREXED], for which the IC50 in the data set on L1210 was found to be 22 nM; in the data set with CCRF-CEM, 16 nM. Also, the Rate constant in data set [1] came out at 400. The Michaelis-Menten constant (Km) in data set [3] came out at 0.8 µM. Further, the Ki at Thymidylate synthase stood at 340 nM.
